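Assay format: 96-well plates, 48-hour exposure. TGI: concentration producing complete growth inhibition.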
Columns and labels:
Experiment in all cases: growth of human tumour cells (NCI), 48 h
DMS 273 small cell lung = test system: DMS 273 small cell lung
LOX IMVI melanoma = test system: LOX IMVI melanoma
NCI-H23 lung = test system: NCI-H23 lung
HCT-116 colon = test system: HCT-116 colon
SK-MEL-28 melanoma = test system: SK-MEL-28 melanoma
CAKI-1 renal = test system: CAKI-1 renal
SK-MEL-2 melanoma = test system: SK-MEL-2 melanoma
OVCAR-4 ovarian = test system: OVCAR-4 ovarian
SK-OV-3 ovarian = test system: SK-OV-3 ovarian
UO-31 renal = test system: UO-31 renal
HOP-92 NSCLC = test system: HOP-92 NSCLC
SF-268 CNS = test system: SF-268 CNS
NCI-H522 lung = test system: NCI-H522 lung
HCT-15 colon = test system: HCT-15 colon
HL-60(TB) leukemia = test system: HL-60(TB) leukemia
K-562 leukemia = test system: K-562 leukemia
786-0 renal = test system: 786-0 renal
U251 CNS = test system: U251 CNS
UACC-62 melanoma = test system: UACC-62 melanoma
HCC-2998 colon = test system: HCC-2998 colon
A549 NSCLC = test system: A549 NSCLC
RPMI-8226 leukemia = test system: RPMI-8226 leukemia
OVCAR-3 ovarian = test system: OVCAR-3 ovarian
MALME-3M melanoma = test system: MALME-3M melanoma
SK-MEL-5 melanoma = test system: SK-MEL-5 melanoma
M14 melanoma = test system: M14 melanoma
RXF-631 renal = test system: RXF-631 renal
SNB-75 CNS = test system: SNB-75 CNS
EKVX NSCLC = test system: EKVX NSCLC
DLD-1 colon = test system: DLD-1 colon
SN12C renal = test system: SN12C renal
TK-10 renal = test system: TK-10 renal
LXFL 529 NSCLC = test system: LXFL 529 NSCLC
M19-MEL melanoma = test system: M19-MEL melanoma
COLO 205 colon = test system: COLO 205 colon
IGROV1 ovarian = test system: IGROV1 ovarian
MOLT-4 leukemia = test system: MOLT-4 leukemia
OVCAR-8 ovarian = test system: OVCAR-8 ovarian
SNB-78 CNS = test system: SNB-78 CNS
NCI-H226 lung = test system: NCI-H226 lung
NCI-H460 lung = test system: NCI-H460 lung
HOP-62 NSCLC = test system: HOP-62 NSCLC
SNB-19 CNS = test system: SNB-19 CNS
SW-620 colon = test system: SW-620 colon
SF-295 CNS = test system: SF-295 CNS
CCRF-CEM leukemia = test system: CCRF-CEM leukemia
ACHN renal = test system: ACHN renal
KM12 colon = test system: KM12 colon
KM20L2 colon = test system: KM20L2 colon
OVCAR-5 ovarian = test system: OVCAR-5 ovarian
DMS 114 small cell lung = test system: DMS 114 small cell lung
HOP-18 NSCLC = test system: HOP-18 NSCLC
UACC-257 melanoma = test system: UACC-257 melanoma
HT29 colon = test system: HT29 colon
A498 renal = test system: A498 renal
SF-539 CNS = test system: SF-539 CNS
SR leukemia = test system: SR leukemia
XF 498 CNS = test system: XF 498 CNS
RXF 393 renal = test system: RXF 393 renal

## Cc1ccc(S(=O)(=O)N=NC=C2c3ccccc3N(O)c3ccccc32)cc1
DMS 273 small cell lung
  TGI: 15.1 µM
LOX IMVI melanoma
  TGI: 2.76 µM
NCI-H23 lung
  TGI: 19.3 µM
HCT-116 colon
  TGI: 1.94 µM
SK-MEL-28 melanoma
  TGI: 14.5 µM
CAKI-1 renal
  TGI: 23.8 µM
SK-MEL-2 melanoma
  TGI: 17.8 µM
OVCAR-4 ovarian
  TGI: 22.8 µM
SK-OV-3 ovarian
  TGI: 27.9 µM
UO-31 renal
  TGI: 27.1 µM
HOP-92 NSCLC
  TGI: 19.5 µM
SF-268 CNS
  TGI: 19.5 µM
NCI-H522 lung
  TGI: 3.86 µM
HCT-15 colon
  TGI: 3.63 µM
HL-60(TB) leukemia
  TGI: 4.62 µM
K-562 leukemia
  TGI: 13 µM
786-0 renal
  TGI: 7.36 µM
U251 CNS
  TGI: 13.1 µM
UACC-62 melanoma
  TGI: 18.8 µM
HCC-2998 colon
  TGI: 21.6 µM
A549 NSCLC
  TGI: 20 µM
RPMI-8226 leukemia
  TGI: 3.68 µM
OVCAR-3 ovarian
  TGI: 30 µM
MALME-3M melanoma
  TGI: 25.5 µM
SK-MEL-5 melanoma
  TGI: 18.8 µM
M14 melanoma
  TGI: 23.2 µM
RXF-631 renal
  TGI: 10.2 µM
SNB-75 CNS
  TGI: 10.4 µM
EKVX NSCLC
  TGI: 40 µM
DLD-1 colon
  TGI: 8.46 µM
SN12C renal
  TGI: 16.6 µM
TK-10 renal
  TGI: 16.5 µM
LXFL 529 NSCLC
  TGI: 2.41 µM
M19-MEL melanoma
  TGI: 23.4 µM
COLO 205 colon
  TGI: 7.99 µM
IGROV1 ovarian
  TGI: 27.1 µM
MOLT-4 leukemia
  TGI: 4.11 µM
OVCAR-8 ovarian
  TGI: 14.7 µM
SNB-78 CNS
  TGI: 32.8 µM
NCI-H226 lung
  TGI: 29 µM
NCI-H460 lung
  TGI: 5.99 µM
HOP-62 NSCLC
  TGI: 18.8 µM
SNB-19 CNS
  TGI: 24.2 µM
SW-620 colon
  TGI: 14.7 µM
SF-295 CNS
  TGI: 21.6 µM
CCRF-CEM leukemia
  TGI: 2.93 µM
ACHN renal
  TGI: 9.43 µM
KM12 colon
  TGI: 26.6 µM
KM20L2 colon
  TGI: 12.4 µM
OVCAR-5 ovarian
  TGI: 27.8 µM
DMS 114 small cell lung
  TGI: 10.8 µM
HOP-18 NSCLC
  TGI: 20.8 µM
UACC-257 melanoma
  TGI: 23.7 µM
HT29 colon
  TGI: 13.2 µM
A498 renal
  TGI: 13.9 µM

## CC(C)(C)C(=O)OCC1OC(N=[N+]=[N-])C(OC(=O)C(C)(C)C)C(OC(=O)C(C)(C)C)C1OC(=O)C(C)(C)C (stereo not drawn)
DMS 273 small cell lung
  TGI: > 100 µM
NCI-H23 lung
  TGI: > 100 µM
HCT-116 colon
  TGI: > 100 µM
SK-MEL-28 melanoma
  TGI: > 100 µM
CAKI-1 renal
  TGI: > 100 µM
SK-MEL-2 melanoma
  TGI: > 100 µM
OVCAR-4 ovarian
  TGI: > 100 µM
SK-OV-3 ovarian
  TGI: > 100 µM
SF-539 CNS
  TGI: > 100 µM
UO-31 renal
  TGI: > 100 µM
HOP-92 NSCLC
  TGI: > 100 µM
SF-268 CNS
  TGI: > 100 µM
NCI-H522 lung
  TGI: > 100 µM
HCT-15 colon
  TGI: > 100 µM
HL-60(TB) leukemia
  TGI: > 100 µM
K-562 leukemia
  TGI: > 100 µM
SR leukemia
  TGI: > 100 µM
U251 CNS
  TGI: > 100 µM
UACC-62 melanoma
  TGI: > 100 µM
HCC-2998 colon
  TGI: > 100 µM
A549 NSCLC
  TGI: > 100 µM
RPMI-8226 leukemia
  TGI: > 100 µM
OVCAR-3 ovarian
  TGI: > 100 µM
MALME-3M melanoma
  TGI: > 100 µM
SK-MEL-5 melanoma
  TGI: > 100 µM
M14 melanoma
  TGI: > 100 µM
SNB-75 CNS
  TGI: > 100 µM
EKVX NSCLC
  TGI: > 100 µM
DLD-1 colon
  TGI: > 100 µM
SN12C renal
  TGI: > 100 µM
TK-10 renal
  TGI: > 100 µM
LXFL 529 NSCLC
  TGI: > 100 µM
COLO 205 colon
  TGI: > 100 µM
IGROV1 ovarian
  TGI: > 100 µM
MOLT-4 leukemia
  TGI: > 100 µM
OVCAR-8 ovarian
  TGI: > 100 µM
SNB-78 CNS
  TGI: > 100 µM
NCI-H460 lung
  TGI: > 100 µM
HOP-62 NSCLC
  TGI: > 100 µM
SNB-19 CNS
  TGI: > 100 µM
SW-620 colon
  TGI: > 100 µM
XF 498 CNS
  TGI: > 100 µM
SF-295 CNS
  TGI: > 100 µM
CCRF-CEM leukemia
  TGI: > 100 µM
ACHN renal
  TGI: > 100 µM
KM12 colon
  TGI: > 100 µM
KM20L2 colon
  TGI: > 100 µM
RXF 393 renal
  TGI: > 100 µM
OVCAR-5 ovarian
  TGI: > 100 µM
DMS 114 small cell lung
  TGI: > 100 µM
UACC-257 melanoma
  TGI: > 100 µM
HT29 colon
  TGI: > 100 µM
A498 renal
  TGI: > 100 µM

— PubChem BioAssay (NCI)
